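Exposure lasted 48 hours, with cells grown in 96-well plates and compounds tested at five concentrations. Abbreviation: GI50, concentration required for 50% inhibition of growth.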 Active and inactive are the calls of the source. Rule as the data show it: active = GI50 up to about 1.1 µM and inactive = higher.
Experiments:
Assay in all cases: NCI tumour cell line growth inhibition, 48 h
[1] = system: EKVX
[2] = system: HOP-92
[3] = system: KM12
[4] = system: SK-MEL-28
[5] = system: RXF 393
[6] = system: HCC 2998
[7] = system: SW-620
[8] = system: A549
[9] = system: NCI/ADR-RES
[10] = system: MOLT-4
[11] = system: HT-29
[12] = system: LOX IMVI
[13] = system: NCI-H23
[14] = system: MCF7
[15] = system: SK-OV-3
[16] = system: OVCAR-4
[17] = system: MDA-MB-231
[18] = system: T47D
[19] = system: BT-549
[20] = system: COLO 205
[21] = system: PC-3
[22] = system: Hs-578T
[23] = system: SK-MEL-2
[24] = system: UO-31
[25] = system: U-251
[26] = system: CCRF-CEM
[27] = system: NCI-H460
[28] = system: ACHN
[29] = system: A498
[30] = system: HCT-15
[31] = system: NCI-H226
[32] = system: OVCAR-5
[33] = system: K562
[34] = system: HCT-116
[35] = system: SF-268
[36] = system: SF-539
[37] = system: DU-145
[38] = system: M14
[39] = system: SK-MEL-5
[40] = system: SF-295
[41] = system: UACC-62
[42] = system: IGROV-1
[43] = system: SN12C
[44] = system: 786-0
[45] = system: SNB-19
[46] = system: NCI-H522
[47] = system: HL-60
[48] = system: UACC-257
[49] = system: OVCAR-3
[50] = system: MDA-MB-435
[51] = system: HOP-62
[52] = system: TK-10
[53] = system: OVCAR-8
[54] = system: CAKI-1
[55] = system: SR
[56] = system: RPMI-8226
[57] = system: SNB-75
[58] = system: Malme-3M

Question: Which GI50 [1] does the source give for `O=S1(=O)c2ccccc2N(c2ccccc2)c2nnnn21` here?
Answer: 33 µM (inactive)

Question: What about the GI50 [2] of the same molecule?
Answer: 35 µM (inactive)

Question: What about the GI50 [3] of the same molecule?
Answer: 29.4 µM (inactive)

Question: And the GI50 [4]?
Answer: 22.4 µM (inactive)

Question: What about the GI50 [5] of the same molecule?
Answer: 19.9 µM (inactive)

Question: What about the GI50 [6] of the same molecule?
Answer: 17.7 µM (inactive)

Question: What about the GI50 [7] of the same molecule?
Answer: 22.3 µM (inactive)

Question: What about the GI50 [8] of the same molecule?
Answer: 33.4 µM (inactive)

Question: And the GI50 [9]?
Answer: 31.4 µM (inactive)

Question: What about the GI50 [10] of the same molecule?
Answer: 19.5 µM (inactive)

Question: What about the GI50 [11] of the same molecule?
Answer: 20.6 µM (inactive)

Question: What about the GI50 [12] of the same molecule?
Answer: 16.7 µM (inactive)

Question: And the GI50 [13]?
Answer: 28.5 µM (inactive)

Question: And the GI50 [14]?
Answer: 36.6 µM (inactive)

Question: And the GI50 [15]?
Answer: 42.3 µM (inactive)

Question: What about the GI50 [16] of the same molecule?
Answer: 16.7 µM (inactive)

Question: And the GI50 [17]?
Answer: 25.6 µM (inactive)

Question: What about the GI50 [18] of the same molecule?
Answer: 31.8 µM (inactive)

Question: What about the GI50 [19] of the same molecule?
Answer: 22.8 µM (inactive)

Question: And the GI50 [20]?
Answer: 22.5 µM (inactive)

Question: And the GI50 [21]?
Answer: 44.3 µM (inactive)

Question: And the GI50 [22]?
Answer: 56.6 µM (inactive)

Question: And the GI50 [23]?
Answer: 40.4 µM (inactive)

Question: And the GI50 [24]?
Answer: 39.5 µM (inactive)

Question: And the GI50 [25]?
Answer: 32.7 µM (inactive)

Question: And the GI50 [26]?
Answer: 3.86 µM (inactive)

Question: What about the GI50 [27] of the same molecule?
Answer: 31.3 µM (inactive)

Question: And the GI50 [28]?
Answer: 29.4 µM (inactive)

Question: And the GI50 [29]?
Answer: 23.6 µM (inactive)

Question: What about the GI50 [30] of the same molecule?
Answer: 12.6 µM

Question: What about the GI50 [31] of the same molecule?
Answer: 36.1 µM (inactive)

Question: What about the GI50 [32] of the same molecule?
Answer: 33.3 µM (inactive)

Question: What about the GI50 [33] of the same molecule?
Answer: 29.4 µM (inactive)

Question: What about the GI50 [34] of the same molecule?
Answer: 26.4 µM (inactive)

Question: And the GI50 [35]?
Answer: 34.7 µM (inactive)

Question: What about the GI50 [36] of the same molecule?
Answer: 18.7 µM (inactive)

Question: And the GI50 [37]?
Answer: 34.5 µM (inactive)

Question: What about the GI50 [38] of the same molecule?
Answer: 20.9 µM (inactive)

Question: And the GI50 [39]?
Answer: 34.4 µM (inactive)

Question: What about the GI50 [40] of the same molecule?
Answer: 47 µM (inactive)

Question: What about the GI50 [41] of the same molecule?
Answer: 15.7 µM (inactive)

Question: And the GI50 [42]?
Answer: 32.3 µM (inactive)

Question: And the GI50 [43]?
Answer: 19.1 µM (inactive)

Question: And the GI50 [44]?
Answer: 17.1 µM (inactive)

Question: And the GI50 [45]?
Answer: 23.3 µM (inactive)

Question: What about the GI50 [46] of the same molecule?
Answer: 17.6 µM (inactive)

Question: And the GI50 [47]?
Answer: 11.4 µM (inactive)

Question: What about the GI50 [48] of the same molecule?
Answer: 42.3 µM (inactive)

Question: And the GI50 [49]?
Answer: 18.5 µM (inactive)

Question: What about the GI50 [50] of the same molecule?
Answer: 29.4 µM (inactive)

Question: And the GI50 [51]?
Answer: 21 µM (inactive)

Question: And the GI50 [52]?
Answer: 38.5 µM (inactive)

Question: What about the GI50 [53] of the same molecule?
Answer: 30.1 µM (inactive)

Question: And the GI50 [54]?
Answer: 17.6 µM (inactive)

Question: For `Cc1nc(C)c(N2CCN(S(N)(=O)=O)CC2)c(O)n1`, which GI50 [1] is on record?
Answer: > 100 µM (inactive)

Question: What about the GI50 [2] of the same molecule?
Answer: > 100 µM (inactive)

Question: And the GI50 [3]?
Answer: > 100 µM (inactive)

Question: And the GI50 [4]?
Answer: > 100 µM (inactive)

Question: What about the GI50 [5] of the same molecule?
Answer: > 100 µM (inactive)

Question: What about the GI50 [6] of the same molecule?
Answer: > 100 µM (inactive)

Question: And the GI50 [7]?
Answer: > 100 µM (inactive)

Question: What about the GI50 [8] of the same molecule?
Answer: > 100 µM (inactive)

Question: What about the GI50 [9] of the same molecule?
Answer: > 100 µM (inactive)

Question: What about the GI50 [10] of the same molecule?
Answer: > 100 µM (inactive)

Question: And the GI50 [11]?
Answer: > 100 µM (inactive)

Question: What about the GI50 [12] of the same molecule?
Answer: > 100 µM (inactive)

Question: What about the GI50 [13] of the same molecule?
Answer: > 100 µM (inactive)

Question: And the GI50 [55]?
Answer: > 100 µM (inactive)

Question: And the GI50 [14]?
Answer: > 100 µM (inactive)

Question: And the GI50 [15]?
Answer: > 100 µM (inactive)

Question: And the GI50 [16]?
Answer: > 100 µM (inactive)

Question: What about the GI50 [17] of the same molecule?
Answer: > 100 µM (inactive)

Question: And the GI50 [18]?
Answer: > 100 µM (inactive)

Question: And the GI50 [19]?
Answer: > 100 µM (inactive)

Question: And the GI50 [20]?
Answer: > 100 µM (inactive)

Question: And the GI50 [21]?
Answer: > 100 µM (inactive)

Question: What about the GI50 [22] of the same molecule?
Answer: > 100 µM (inactive)

Question: What about the GI50 [24] of the same molecule?
Answer: > 100 µM (inactive)

Question: And the GI50 [25]?
Answer: > 100 µM (inactive)

Question: What about the GI50 [26] of the same molecule?
Answer: > 100 µM (inactive)

Question: And the GI50 [27]?
Answer: > 100 µM (inactive)

Question: And the GI50 [28]?
Answer: > 100 µM (inactive)

Question: And the GI50 [29]?
Answer: > 100 µM (inactive)

Question: What about the GI50 [30] of the same molecule?
Answer: > 100 µM

Question: What about the GI50 [31] of the same molecule?
Answer: > 100 µM (inactive)

Question: What about the GI50 [33] of the same molecule?
Answer: > 100 µM (inactive)

Question: What about the GI50 [34] of the same molecule?
Answer: > 100 µM (inactive)

Question: And the GI50 [35]?
Answer: > 100 µM (inactive)

Question: And the GI50 [36]?
Answer: > 100 µM (inactive)

Question: And the GI50 [37]?
Answer: > 100 µM (inactive)

Question: What about the GI50 [38] of the same molecule?
Answer: > 100 µM (inactive)

Question: And the GI50 [39]?
Answer: > 100 µM (inactive)

Question: What about the GI50 [40] of the same molecule?
Answer: > 100 µM (inactive)

Question: And the GI50 [41]?
Answer: > 100 µM (inactive)

Question: And the GI50 [42]?
Answer: > 100 µM (inactive)

Question: And the GI50 [43]?
Answer: > 100 µM (inactive)

Question: And the GI50 [44]?
Answer: > 100 µM (inactive)

Question: What about the GI50 [45] of the same molecule?
Answer: > 100 µM (inactive)

Question: And the GI50 [56]?
Answer: > 100 µM (inactive)

Question: What about the GI50 [46] of the same molecule?
Answer: > 100 µM (inactive)

Question: What about the GI50 [47] of the same molecule?
Answer: > 100 µM (inactive)

Question: And the GI50 [48]?
Answer: > 100 µM (inactive)

Question: What about the GI50 [49] of the same molecule?
Answer: > 100 µM (inactive)

Question: And the GI50 [50]?
Answer: > 100 µM (inactive)

Question: And the GI50 [51]?
Answer: > 100 µM (inactive)

Question: And the GI50 [57]?
Answer: 0.101 µM (active)

Question: And the GI50 [52]?
Answer: > 100 µM (inactive)

Question: And the GI50 [53]?
Answer: > 100 µM (inactive)

Question: And the GI50 [58]?
Answer: > 100 µM (inactive)

Question: What about the GI50 [54] of the same molecule?
Answer: > 100 µM (inactive)
